{
  "source": "patent US9150577B2",
  "about": "“Heterocyclic compounds containing an indole core” (Boehringer Ingelheim International GmbH, priority 2009, dated 2015)",
  "data": [
    {"target": "Human RSK2 (Homo sapiens (Human), UniProt P51812)", "sequence (P51812 whole entry)": "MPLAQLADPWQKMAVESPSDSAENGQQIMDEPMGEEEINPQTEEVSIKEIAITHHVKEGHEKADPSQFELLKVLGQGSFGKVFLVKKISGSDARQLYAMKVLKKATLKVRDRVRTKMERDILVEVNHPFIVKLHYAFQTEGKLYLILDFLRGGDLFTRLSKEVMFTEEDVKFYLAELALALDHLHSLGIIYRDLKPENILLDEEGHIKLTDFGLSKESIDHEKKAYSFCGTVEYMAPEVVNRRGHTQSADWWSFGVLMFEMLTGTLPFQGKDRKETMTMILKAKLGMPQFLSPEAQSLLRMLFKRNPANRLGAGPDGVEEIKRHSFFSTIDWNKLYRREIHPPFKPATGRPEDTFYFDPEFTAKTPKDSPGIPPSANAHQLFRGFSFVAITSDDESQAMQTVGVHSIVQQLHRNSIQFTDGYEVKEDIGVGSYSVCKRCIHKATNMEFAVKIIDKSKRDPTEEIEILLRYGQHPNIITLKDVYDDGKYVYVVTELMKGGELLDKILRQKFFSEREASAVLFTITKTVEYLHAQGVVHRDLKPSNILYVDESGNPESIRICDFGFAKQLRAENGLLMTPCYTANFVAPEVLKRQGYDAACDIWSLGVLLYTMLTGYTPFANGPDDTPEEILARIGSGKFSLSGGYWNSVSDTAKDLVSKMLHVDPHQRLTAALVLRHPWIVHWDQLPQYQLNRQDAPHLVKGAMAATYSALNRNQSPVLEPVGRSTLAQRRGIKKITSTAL", "test": "Human RSK2 assay (Kinase Glo Plus, residual ATP);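 note: recombinant human RSK2 phosphorylating a substrate peptide, 90 min at 28 °C, leftover ATP read by luminescence, RLU scaled between no-kinase background and uninhibited kinase controls, 4-parameter fit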", "type": "biochemical", "units": {"IC50": "nM"}, "values": [
      {"smiles": "O=C(Nc1cnn(C2CCOCC2)c1)c1ccc2cc3n(c2c1)CCCNC3=O", "note": "[Example 27, 1-oxo-N-[1-(tetrahydro-2H-pyran-4-yl)-1H-pyrazol-4-yl]-2,3,4,5-tetrahydro-1H-[1,4]diazepino[1,2-a]indole-8-carboxamide]", "IC50": 46},
      {"smiles": "CC(C)(C)n1cc(NC(=O)c2ccc3cc4n(c3c2)CCCNC4=O)cn1", "note": "[Example 191, N-(1-tert-butyl-1H-pyrazol-4-yl)-1-oxo-2,3,4,5-tetrahydro-1H-[1,4]diazepino[1,2-a]indole-8-carboxamide]", "IC50": 48},
      {"smiles": "CN(C)CCCn1c(NC(=O)c2ccc3cc4n(c3c2)C(C)(C)CNC4=O)nc2ccccc21", "note": "[Example 98, N-{1-[3-(dimethylamino)propyl]-1H-benzimidazol-2-yl}-4,4-dimethyl-1-oxo-1,2,3,4-tetrahydropyrazino[1,2-a]indole-7-carboxamide]", "IC50": 0.38},
      {"smiles": "O=C(Nc1cc(C2CC2)on1)c1ccc2cc3n(c2c1)CCCNC3=O", "note": "[Example 183, N-(5-cyclopropyl-1,2-oxazol-3-yl)-1-oxo-2,3,4,5-tetrahydro-1H-[1,4]diazepino[1,2-a]indole-8-carboxamide]", "IC50": 26},
      {"smiles": "Cn1c(NC(=O)c2ccc3cc4n(c3c2)CC(C)(C)CNC4=O)nc2ccccc21", "note": "[Example 60, 4,4-dimethyl-N-(1-methyl-1H-benzimidazol-2-yl)-1-oxo-2,3,4,5-tetrahydro-1H-[1,4]diazepino[1,2-a]indole-8-carboxamide]", "IC50": 20},
      {"smiles": "CC(C)(C)c1cc(NC(=O)c2ccc3cc4n(c3c2)CCCNC4=O)on1", "note": "[Example 195, N-(3-tert-butyl-1,2-oxazol-5-yl)-1-oxo-2,3,4,5-tetrahydro-1H-[1,4]diazepino[1,2-a]indole-8-carboxamide]", "IC50": 44},
      {"smiles": "CC1CNC(=O)c2cc3ccc(C(=O)Nc4nc5ccccc5n4C)cc3n21", "note": "(stereo not drawn) [Example 61, 4-methyl-N-(1-methyl-1H-benzimidazol-2-yl)-1-oxo-1,2,3,4-tetrahydropyrazino[1,2-a]indole-7-carboxamide]", "IC50": 2.2},
      {"smiles": "CN(C)CC(C)(C)Cn1c(NC(=O)c2ccc3cc4n(c3c2)CCCNC4=O)nc2ccccc21", "note": "[Example 84, N-{1-[3-(dimethylamino)-2,2-dimethylpropyl]-1H-benzimidazol-2-yl}-1-oxo-2,3,4,5-tetrahydro-1H-[1,4]diazepino[1,2-a]indole-8-carboxamide]", "IC50": 30},
      {"smiles": "O=C(Nc1cc(Cc2ccccc2)on1)c1ccc2cc3n(c2c1)CCCNC3=O", "note": "[Example 212, N-(5-benzyl-1,2-oxazol-3-yl)-1-oxo-2,3,4,5-tetrahydro-1H-[1,4]diazepino[1,2-a]indole-8-carboxamide]", "IC50": 30},
      {"smiles": "CC1CNC(=O)c2cc3ccc(C(=O)Nc4nc5ccccc5n4C)cc3n2C1", "note": "(stereo not drawn) [Example 62, 4-methyl-N-(1-methyl-1H-benzimidazol-2-yl)-1-oxo-2,3,4,5-tetrahydro-1H-[1,4]diazepino[1,2-a]indole-8-carboxamide]", "IC50": 8.2},
      {"smiles": "O=C(Nc1ccccc1Cl)c1ccc2cc3n(c2c1)CCCNC3=O", "note": "[Example 216, N-(2-chlorophenyl)-1-oxo-2,3,4,5-tetrahydro-1H-[1,4]diazepino[1,2-a]indole-8-carboxamide]", "IC50": 6000},
      {"smiles": "Cc1ccc2[nH]c(NC(=O)c3ccc4cc5n(c4c3)CCCNC5=O)nc2c1", "note": "[Example 39, N-(5-methyl-1H-benzimidazol-2-yl)-1-oxo-2,3,4,5-tetrahydro-1H-[1,4]diazepino[1,2-a]indole-8-carboxamide]", "IC50": 3},
      {"smiles": "O=C(Nc1cccnc1)c1ccc2cc3n(c2c1)CC1(CC1)CNC3=O", "note": "[Example 123, 1′-oxo-N-(pyridin-3-yl)-2′,3′-dihydro-1′H-spiro[cyclopropane-1,4′-[1,4]diazepino[1,2-a]indole]-8′-carboxamide]", "IC50": 430},
      {"smiles": "CC(C)n1ncc2cc(NC(=O)c3ccc4cc5n(c4c3)C(C)CCNC5=O)cnc21", "note": "(stereo not drawn) [Example 162, 5-methyl-1-oxo-N-[1-(propan-2-yl)-1H-pyrazolo[3,4-b]pyridin-5-yl]-2,3,4,5-tetrahydro-1H-[1,4]diazepino[1,2-a]indole-8-carboxamide]", "IC50": 19},
      {"smiles": "CN(C)CCCn1c(NC(=O)c2ccc3cc4n(c3c2)CC2(CCOCC2)CNC4=O)nc2ccccc21", "note": "[Example 95, N-{1-[3-(dimethylamino)propyl]-1H-benzimidazol-2-yl}-1-oxo-2,2′,3,3′,5′,6′-hexahydro-1H-spiro[1,4-diazepino[1,2-a]indole-4,4′-pyran]-8-carboxamide]", "IC50": 16},
      {"smiles": "CC1(C)CNC(=O)c2cc3ccc(C(=O)Nc4nc5ccccc5[nH]4)cc3n21", "note": "[Example 56, N-(1H-benzimidazol-2-yl)-4,4-dimethyl-1-oxo-1,2,3,4-tetrahydropyrazino[1,2-a]indole-7-carboxamide]", "IC50": 0.89},
      {"smiles": "O=C(Nc1cnc2ccccc2c1)c1ccc2cc3n(c2c1)CCCNC3=O", "note": "[Example 190, 1-oxo-N-(quinolin-3-yl)-2,3,4,5-tetrahydro-1H-[1,4]diazepino[1,2-a]indole-8-carboxamide]", "IC50": 34},
      {"smiles": "Cn1ncc2cc(NC(=O)c3ccc4cc5n(c4c3)CCCNC5=O)cnc21", "note": "[Example 20, N-(1-methyl-1H-pyrazolo[3,4-b]pyridin-5-yl)-1-oxo-2,3,4,5-tetrahydro-1H-[1,4]diazepino[1,2-a]indole-8-carboxamide]", "IC50": 87},
      {"smiles": "CC1CNC(=O)c2cc3ccc(C(=O)Nc4cc(C(C)(C)C)on4)cc3n21", "note": "(stereo not drawn) [Example 176, N-(5-tert-butyl-1,2-oxazol-3-yl)-4-methyl-1-oxo-1,2,3,4-tetrahydropyrazino[1,2-a]indole-7-carboxamide]", "IC50": 25},
      {"smiles": "O=C(Nc1cc(C(F)(F)F)no1)c1ccc2cc3n(c2c1)CCCNC3=O", "note": "[Example 207, 1-oxo-N-[3-(trifluoromethyl)-1,2-oxazol-5-yl]-2,3,4,5-tetrahydro-1H-[1,4]diazepino[1,2-a]indole-8-carboxamide]", "IC50": 85},
      {"smiles": "O=C(Nc1cnn(-c2ccccc2)c1)c1ccc2cc3n(c2c1)CCCNC3=O", "note": "[Example 192, 1-oxo-N-(1-phenyl-1H-pyrazol-4-yl)-2,3,4,5-tetrahydro-1H-[1,4]diazepino[1,2-a]indole-8-carboxamide]", "IC50": 18},
      {"smiles": "O=C(Nc1cccc(-c2c[nH]cn2)c1)c1ccc2cc3n(c2c1)CCCNC3=O", "note": "[Example 226, N-[3-(1H-imidazol-4-yl)phenyl]-1-oxo-2,3,4,5-tetrahydro-1H-[1,4]diazepino[1,2-a]indole-8-carboxamide]", "IC50": 52},
      {"smiles": "Cc1cc(NC(=O)c2ccc3cc4n(c3c2)CC(C)CNC4=O)no1", "note": "(stereo not drawn) [Example 182, 4-methyl-N-(5-methyl-1,2-oxazol-3-yl)-1-oxo-2,3,4,5-tetrahydro-1H-[1,4]diazepino[1,2-a]indole-8-carboxamide]", "IC50": 150},
      {"smiles": "N#Cc1ccccc1NC(=O)c1ccc2cc3n(c2c1)CCCNC3=O", "note": "[Example 217, N-(2-cyanophenyl)-1-oxo-2,3,4,5-tetrahydro-1H-[1,4]diazepino[1,2-a]indole-8-carboxamide]", "IC50": 7000},
      {"smiles": "O=C(Nc1cc(-c2cccnc2)no1)c1ccc2cc3n(c2c1)CCCNC3=O", "note": "[Example 210, 1-oxo-N-[3-(pyridin-3-yl)-1,2-oxazol-5-yl]-2,3,4,5-tetrahydro-1H-[1,4]diazepino[1,2-a]indole-8-carboxamide]", "IC50": 30},
      {"smiles": "Cc1cc(NC(=O)c2ccc3cc4n(c3c2)[C@@H](C)[C@H](C)CNC4=O)no1", "note": "(relative stereo) [Example 169, Trans-4,5-dimethyl-N-(5-methyl-1,2-oxazol-3-yl)-1-oxo-2,3,4,5-tetrahydro-1H-[1,4]diazepino[1,2-a]indole-8-carboxamide]", "IC50": 570},
      {"smiles": "Cc1nn(C)c2ncc(NC(=O)c3ccc4cc5n(c4c3)CCCNC5=O)cc12", "note": "[Example 189, N-(1,3-dimethyl-1H-pyrazolo[3,4-b]pyridin-5-yl)-1-oxo-2,3,4,5-tetrahydro-1H-[1,4]diazepino[1,2-a]indole-8-carboxamide]", "IC50": 1300},
      {"smiles": "Cc1cc(NC(=O)c2ccc3cc4n(c3c2)[C@@H](C)CCNC4=O)no1", "note": "[Example 173, (5S)-5-methyl-N-(5-methyl-1,2-oxazol-3-yl)-1-oxo-2,3,4,5-tetrahydro-1H-[1,4]diazepino[1,2-a]indole-8-carboxamide]", "IC50": 1200},
      {"smiles": "Cn1cc(NC(=O)c2ccc3cc4n(c3c2)CC2(CCC2)CNC4=O)cn1", "note": "[Example 24, N-(1-methyl-1H-pyrazol-4-yl)-1′-oxo-2′,3′-dihydro-1′H-spiro[cyclobutane-1,4′-[1,4]diazepino[1,2-a]indole]-8′-carboxamide]", "IC50": 320},
      {"smiles": "O=C(Nc1nc2ccccc2o1)c1ccc2cc3n(c2c1)CCCNC3=O", "note": "[Example 112, N-(1,3-benzoxazol-2-yl)-1-oxo-2,3,4,5-tetrahydro-1H-[1,4]diazepino[1,2-a]indole-8-carboxamide]", "IC50": 370},
      {"smiles": "C[C@@H]1CNC(=O)c2cc3ccc(C(=O)Nc4cnn(Cc5ccccc5)c4)cc3n21", "note": "[Example 130, (4R)-N-(1-benzyl-1H-pyrazol-4-yl)-4-methyl-1-oxo-1,2,3,4-tetrahydropyrazino[1,2-a]indole-7-carboxamide]", "IC50": 0.6},
      {"smiles": "Cc1cc(NC(=O)c2ccc3cc4n(c3c2)C(C)CCNC4=O)no1", "note": "(stereo not drawn) [Example 159, 5-methyl-N-(5-methyl-1,2-oxazol-3-yl)-1-oxo-2,3,4,5-tetrahydro-1H-[1,4]diazepino[1,2-a]indole-8-carboxamide]", "IC50": 12},
      {"smiles": "Cc1ccc(-c2cccc(NC(=O)c3ccc4cc5n(c4c3)CCCNC5=O)c2)s1", "note": "[Example 228, N-[3-(5-methylthiophen-2-yl)phenyl]-1-oxo-2,3,4,5-tetrahydro-1H-[1,4]diazepino[1,2-a]indole-8-carboxamide]", "IC50": 4100},
      {"smiles": "CC1CCNC(=O)c2cc3ccc(C(=O)Nc4cnn(C)c4)cc3n21", "note": "(stereo not drawn) [Example 164, 5-methyl-N-(1-methyl-1H-pyrazol-4-yl)-1-oxo-2,3,4,5-tetrahydro-1H-[1,4]diazepino[1,2-a]indole-8-carboxamide]", "IC50": 10},
      {"smiles": "C[C@H]1CCNC(=O)c2cc3ccc(C(=O)Nc4cnn(Cc5ccccc5)c4)cc3n21", "note": "[Example 144, (5S)-N-(1-benzyl-1H-pyrazol-4-yl)-5-methyl-1-oxo-2,3,4,5-tetrahydro-1H-[1,4]diazepino[1,2-a]indole-8-carboxamide]", "IC50": 80},
      {"smiles": "CS(=O)(=O)c1ccc2c(c1)nc(NC(=O)c1ccc3cc4n(c3c1)CCCNC4=O)n2CC(F)(F)F", "note": "[Example 118, N-[5-(methylsulfonyl)-1-(2,2,2-trifluoroethyl)-1H-benzimidazol-2-yl]-1-oxo-2,3,4,5-tetrahydro-1H-[1,4]diazepino[1,2-a]indole-8-carboxamide]", "IC50": 18}
    ]}
  ]
}
